Data taken from PubChem BioAssay (NCI).
Values joined by “and” are separate entries in the source; they are usually repeats but may differ in a detail not shown here. Equal values may be shown once.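 A five-concentration, 48-hour dose response in 96-well plates underlies each endpoint, interpolated linearly between surrounding concentrations. At the GI50, growth is halved. TGI denotes the concentration required for complete inhibition of growth.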

Legend:
Experiment in all cases: NCI-60 cell line screen, 48 h
[1] = test system: HCT-116 colon
[2] = test system: SK-MEL-28 melanoma
[3] = test system: OVCAR-4 ovarian
[4] = test system: PC-3 prostate
[5] = test system: LOX IMVI melanoma
[6] = test system: U251 CNS
[7] = test system: UACC-257 melanoma
[8] = test system: CAKI-1 renal
[9] = test system: NCI/ADR-RES ovarian
[10] = test system: T-47D breast
[11] = test system: CCRF-CEM leukemia
[12] = test system: OVCAR-3 ovarian
[13] = test system: A498 renal
[14] = test system: SNB-19 CNS
[15] = test system: MCF7 breast
[16] = test system: NCI-H226 lung

Compound	TGI [1] [µM]	TGI [2] [µM]	TGI [3] [µM]	TGI [4] [µM]	TGI [5] [µM]	TGI [6] [µM]	TGI [7] [µM]	TGI [8] [µM]	TGI [9] [µM]	TGI [10] [µM]	TGI [11] [µM]	TGI [12] [µM]	TGI [13] [µM]	TGI [14] [µM]	TGI [15] [µM]	TGI [16] [µM]	GI50 [7]	GI50 [8] [µM]	GI50 [11] [µM]	GI50 [12]
COc1cc(/C=C2\N=C(c3ccccc3)N(/N=C/c3cc4cc(C)ccc4nc3Cl)C2=O)ccc1O	51.8	> 100	> 100	50.1	> 100	> 100	> 100	> 100	> 100	> 100	36	> 100	55.3	> 100	63.1	–	–	–	–	–
N=C1SCCS1	> 100	> 100	> 100	–	> 100	> 100	> 100	> 100	–	–	> 100	> 100	–	> 100	–	> 100	–	–	–	–
CCOP(=O)(OCC)OC1CC(n2cnc3c(N(CC)CC)ncnc32)OC1CO[Si](C)(C)C(C)(C)C (configuration not stated)	30.6	36.3	29.5	28.5	33.4	28.7	32.4	31.5	51.8	27.8	41.2	44.9	–	33.7	39.8	39.3	–	–	–	–
COc1ccc2[nH]c3c(c2c1)CCc1ccccc1-3	> 100	> 100	> 100	> 100	> 100	> 100	> 100	> 100	> 100	> 100	> 100	> 100	–	> 100	> 100	> 100	–	–	–	–
CC(C)(C)OC(=O)N1CCC[C@H]1CSC[C@@H]1CCCN1C(=O)OC(C)(C)C	78.5	60	> 100	82.1	35.2	90.7	90.8	> 100	48.9	80.7	44.8	90.3	–	> 100	96.3	–	–	–	–	–
NC1=NC(=O)[C@H](CSCc2ccccc2)N1C(=O)OCc1ccccc1	> 100	–	> 100	> 100	> 100	> 100	> 100	> 100	> 100	–	–	> 100	> 100	> 100	> 100	> 100	–	–	–	–
Nc1nc(SCC(=O)c2ccccc2)nc2nc3c(c(-c4ccccc4)c12)CCCC3	> 100	61.9	66.4	–	61.7	> 100	> 100	> 100	> 100	> 100	> 100	94.5	42.9	> 100	> 100	62.7	–	–	–	–
OCC1OC(NC(=S)NCSCCC(F)(F)C(F)(F)C(F)(F)C(F)(F)C(F)(F)C(F)(F)F)C(O)C(O)C1O (configuration not stated)	> 100	> 100	> 100	> 100	> 100	46.6	> 100	> 100	> 100	> 100	91.3	> 100	12.6	> 100	> 100	–	–	–	–	–
Cc1ccc(CCCC(=O)O)cc1C	> 100	> 100	> 100	> 100	> 100	> 100	> 100	> 100	> 100	–	> 100	> 100	–	> 100	–	> 100	–	–	–	–
NC(=S)NS(=O)(=O)c1ccc(F)cc1	> 100	> 100	> 100	> 100	> 100	> 100	> 100	> 100	> 100	> 100	> 100	> 100	–	> 100	–	> 100	–	–	–	–
c1ccc(NC2(c3nnnn3C3CCCCC3)CCNCC2)cc1	28.5	32.5	> 100	–	30.7	31.5	30.6	–	> 100	52.1	55.4	–	51	42.5	35.1	62.3	–	–	–	–
COc1ccc2c(c1)OCC1Cc3cccc(OC)c3OC21 (configuration not stated)	> 100	–	–	> 100	> 100	> 100	> 100	> 100	> 100	> 100	> 100	> 100	> 100	–	–	> 100	–	–	–	–
COc1ccc(-n2c(-c3ccccc3)cc(-c3cccs3)c2-c2cccs2)cc1	> 100	> 100	> 100	–	> 100	> 100	> 100	> 100	> 100	> 100	32.7	> 100	> 100	–	> 100	> 100	–	–	–	–
O=C1c2cc([N+](=O)[O-])cnc2S(=O)(=O)N1c1ccc(Oc2ccccc2)cc1	> 100	> 100	> 100	> 100	> 100	> 100	–	–	> 100	> 100	> 100	> 100	–	> 100	> 100	> 100	–	–	–	–
O=C(O)c1ccccc1/C=C1\Cc2ccc3c(c2C1=O)CCCC3	80.4	> 100	> 100	–	> 100	> 100	68.4	–	> 100	79.3	66.2	> 100	89	> 100	> 100	82.7	–	–	–	–
ClCc1nc2cc(Cl)ccc2o1	20.4	20.7	3.45	19.6	6.74	9.13	22.8	3.24	98.4	5.15	> 25.7	4.07	–	21.5	7.65	42.9	–	–	–	–

Compound	TGI [1] [µM]	TGI [2] [µM]	TGI [3] [µM]	TGI [4] [µM]	TGI [5] [µM]	TGI [6] [µM]	TGI [7] [µM]	TGI [8] [µM]	TGI [9] [µM]	TGI [10] [µM]	TGI [11] [µM]	TGI [12] [µM]	TGI [13] [µM]	TGI [14] [µM]	TGI [15] [µM]	TGI [16] [µM]	GI50 [7]	GI50 [8] [µM]	GI50 [11] [µM]	GI50 [12]
Cc1c(/C=N\NC(=S)N(C)CCN(C)C(=S)N/N=C\c2c(C)n(C)n(-c3ccccc3)c2=O)c(=O)n(-c2ccccc2)n1C	> 100	–	> 100	> 100	–	> 100	> 100	> 100	> 100	> 100	–	> 100	> 100	> 100	–	> 100	–	–	–	–
CC[n+]1c(/C=C/c2ccc(N(CCCl)CCCl)cc2)ccc2cc(Br)ccc21	482	2.52	7.98	–	2.87	4.11	–	–	–	–	–	2.22	6900	2.57	–	7.48	95.8 µM	1650	304	–
CCOC(=O)C(NC(=O)Nc1ccccc1F)(OC)C(F)(F)F (configuration not stated)	> 100	> 100	–	> 100	> 100	> 100	> 100	> 100	> 100	> 100	> 100	–	> 100	> 100	–	–	–	–	–	–
CCOC(=O)c1cc(NC(=O)c2ccccc2)c(=O)n2c(cc3c(Cl)cccc32)c1O	> 100	> 100	> 100	> 100	> 100	> 100	> 100	> 100	> 100	–	> 100	> 100	> 100	> 100	> 100	> 100	–	–	–	–
CC1(C)O[C@@H]([C@@H](O)[C@H](O)C2SCCCS2)[C@@H](CO)O1	> 100	> 100	–	> 100	> 100	> 100	> 100	> 100	> 100	> 100	> 100	> 100	> 100	> 100	–	> 100	–	–	–	–
CCOC(=O)CC(=O)Nc1c(C(=O)OCC)sc2nc(SC)nc(Nc3ccc(OC)c(OC)c3)c12	> 100	> 100	> 100	> 100	> 100	25.1	> 100	> 100	> 100	–	> 100	40.1	82.4	–	> 100	> 100	–	–	–	–
Brc1ccc(C2(N3CCCCC3)CCCCC2)s1	> 100	–	> 100	> 100	29	> 100	94.6	> 100	–	49.5	39.2	> 100	> 100	> 100	> 100	–	–	–	–	–
c1ccc2c(-c3ccnc(-c4c[nH]c5ccccc45)n3)c[nH]c2c1	15.4	> 100	> 100	10.7	10.1	14.2	> 100	74.6	> 100	26.9	3.32	> 100	5.33	> 100	54.2	–	–	–	–	–
CSc1ccc(C=C2N=C(c3ccccc3)N(c3cc(C(=O)c4ccccc4)ccc3N3C(=O)/C(=C/c4ccc(SC)cc4)N=C3c3ccccc3)C2=O)cc1	> 100	> 100	> 100	> 100	> 100	> 100	> 100	> 100	> 100	> 100	62.4	55.1	> 100	> 100	> 100	–	–	–	–	–
COc1cc(-c2c(C(C)=O)c(-c3ccccc3)n(C3OC(COC(C)=O)C(OC(C)=O)C(OC(C)=O)C3OC(C)=O)c(=S)c2C#N)ccc1O (configuration not stated)	> 100	> 100	> 100	> 100	> 100	> 100	> 100	> 100	> 100	–	> 100	> 100	> 100	> 100	> 100	–	> 100 µM and 34.9 µM	–	–	44.1 µM and > 100 µM
O=C1C2=Cc3ccccc3CCN2c2ccc([N+](=O)[O-])cc21	> 100	> 100	> 100	> 100	> 100	> 100	> 100	> 100	> 100	–	> 100	> 100	> 100	> 100	> 100	> 100	–	–	–	–
CC(=O)NC1C(OCc2ccccc2)OC(CO)C(O)C1OCC(=O)NC(C)C(=O)NC(CCC(=O)Nc1ccc2c(c1)CN1C(=O)c3ccccc3C1=N2)C(N)=O (configuration not stated)	> 100	> 100	> 100	> 100	> 100	> 100	> 100	> 100	> 100	> 100	> 100	> 100	> 100	> 100	> 100	–	–	–	–	–
COC1(CCO)CC=CCC1(CCO)OC (configuration not stated)	> 100	> 100	> 100	> 100	> 100	–	> 100	> 100	> 100	> 100	> 100	> 100	–	> 100	> 100	> 100	–	–	–	–
O=C(O)C1CCCCN1CCc1c[nH]c2ccccc12 (configuration not stated)	> 100	> 100	> 100	> 100	> 100	> 100	> 100	> 100	> 100	> 100	> 100	> 100	–	> 100	> 100	> 100	–	–	–	–
CC1(c2nc3ccccc3[nH]2)CCC(CO)C(C)(C)O1 (configuration not stated)	> 100	> 100	> 100	> 100	> 100	> 100	> 100	> 100	> 100	> 100	> 100	> 100	–	> 100	> 100	> 100	–	–	–	–
Cc1oc2nc(N(C)C)n3c(C)nnc3c2c1C	> 100	> 100	> 100	–	> 100	> 100	> 100	> 100	> 100	> 100	> 100	–	> 100	> 100	> 100	> 100	–	–	–	–
